Assay [1] relates to MIA PaCa-2 human pancreatic carcinoma. In words: MIA PaCa-2 CCK-8 proliferation assay. It counts as cell-based. The following applies: Homo sapiens, MIA PaCa-2, 72 h, MIA PaCa-2 cells. The method in brief:
(§1)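 Percent inhibition derived from CCK-8 optical signal, normalised between DMSO-only cells (0%) and cell-free medium containing DMSO as background. Cells: MIA PaCa-2 carrying 2 KRAS(G12C) copies; NCI-H358, NCI-H23 carrying 1 copy apiece. Concentrations spanned 1.02 nM–20 μM in threefold increments.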
In general terms: Tetrazolium dyes change colour on reduction, which living cells bring about.

Assay [2] concerns the target T1, HSP90a protein (Homo sapiens, UniProt P07900).
T1 construct: purchased BPS Bioscience 50298
In words: HSP90α-binding fluorescent polarization (FP) assay, BODIPY-labeled RNK04010 probe. As to conditions: FP competition with RNK04010 (BODIPY-labeled), 5 nM, 300 min at 25° C. In short, it runs like this:
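Polarization signal was read after equilibration at 25° C, for 120 min with FITC-geldanamycin or 300 min with the BODIPY-tagged RNK04010 probe, each at 5 nM final. Compounds spanned 20 μM down to 5.2 nM in 2.5-fold dilutions against the HSP90a N-terminal domain.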

Assay [3] has as its system NCI-H358 human non-small cell lung cancer. In words: NCI-H358 CCK-8 proliferation assay. In kind it is cell-based. As to conditions: NCI-H358 cells, 72 hr. In short, it runs like this: as §1
Assay [4] concerns NCI-H23 human non-small cell lung cancer. In words: NCI-H23 CCK-8 proliferation assay. In kind it is cell-based. As to conditions: NCI-H23 cells, 72 hr. The method in brief: as §1
Assay [5] deals with T2, KRAS(G12C) (Homo sapiens, UniProt P01116, G12C). In words: KRAS(G12C)/SOS1 homogeneous time-resolved fluorescence (HTRF) assay. Details: purchased Cisbio 63ADK000CB16PEG. As to conditions: absence of GTP, 4° C. for 3 hr, read-out: KRAS (G12C) binding. The method in brief: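 HTRF kit measuring compound-induced block of KRAS(G12C)-SOS1 interaction without GTP. Compounds tested as 3-fold serial dilutions down to 1.02 nM, incubated with reaction components 3 h at 4 °C in sealed plates before fluorescence read.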
T2 sequence (P01116 1-188 isoform P01116-2 G12C): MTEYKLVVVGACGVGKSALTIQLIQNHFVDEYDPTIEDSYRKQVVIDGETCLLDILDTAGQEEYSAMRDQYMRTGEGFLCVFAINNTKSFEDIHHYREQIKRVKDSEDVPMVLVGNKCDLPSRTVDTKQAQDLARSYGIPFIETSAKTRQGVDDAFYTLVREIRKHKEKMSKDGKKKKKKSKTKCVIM
(In general: Time-resolved FRET reads energy transfer from a long-lived donor to a nearby acceptor.)

Assay [6] addresses T2, KRAS(G12C). In words: KRAS(G12C) Western blot protein degradation assay in MIA PaCa-2 cells. In kind it is cell-based. Details: host or cells: LU65A. As to conditions: 48 hr. How it is done:
The following cancer cell lines were employed: BT-474 human breast carcinoma (ATCC, #HTB-20); MIA PaCa-2 human pancreatic carcinoma [2 copies KRAS(G12C)](ATCC, #CRL-1420); NCI-H23 human non-small cell lung cancer [1 copy KRAS(G12C)](ATCC, #CRL-5800); NCI-H358 human non-small cell lung cancer [1 copy KRAS(G12C)](ATCC, #CRL-5807); LU65A human lung carcinoma (Pharmaron, Beijing, China). Cell lines were cultured essentially according to ATCC and Pharmaron recommendations.
KRAS(G12C) Western Blot Protein Degradation Assay
The MIA PaCa-2 human pancreatic carcinoma cell line and LU65A human lung cancer cell line, which expresses KRAS(G12C), were seeded in 6- or 12-well tissue culture plates, and after 1 hr, test compounds were added at various concentrations and incubated at 37° C./5% CO2 for 48 hr (MIA Paca-2) and 6 hr (LU65A) respectively. Cells were then washed with cold PBS, aspirated and cold RIPA buffer containing a protease/phosphatase inhibitor cocktail was added to lyse cells. After centrifugation, the total protein concentrations of cell lysates were determined using the BCA protein assay. Samples were normalized for equivalent protein concentrations, 5×SDS-PAGE loading buffer added and denatured at 100° C. for 10 min. 20 μl of each sample/well was loaded on a SDS-PAGE gel and electrophoresed for 20 min at 80 V, then 120 V for 1.5 hr. Gels were then electroblotted to nitrocellulose membranes using a wet-transfer method at 250 mA for 2.5 hr. Membranes were incubated with blocking buffer for 1 hr and washed 3 times with TBST for 5 min. Membranes were then incubated with anti-KRAS (Sigma-Aldrich, #SAB1404011) and anti-β-Actin monoclonal antibodies (Cell Signaling Technology, #3700) diluted in blocking buffer at 4° C. overnight per the manufacturer's recommendations. After washing 3 times, blots were incubated with appropriately labeled secondary antibodies for 1 hr at room temperature and washed again. Fluorescence imaging and quantitation was performed using a LI-COR Odyssey. Results was analyzed using GraphPad Prism 7 software. Compound degradation of was determined by the following equation and DC50 values (the concentration at which 50% of the maximal degradation of KRAS occurs) calculated using GraphPad Prism 7 software:
% Inhibition=100−(D−B)/(S−B)*100%. • S: Fluorescence intensity of cells with antibody • D: Fluorescence intensity of compound-treated cells with antibody • B: Fluorescence intensity of cells without antibody
Background: A western blot detects proteins with antibodies after separation by electrophoresis.

The target in assay [7] is T1, HSP90a protein. In words: HSP90α-binding fluorescent polarization (FP) assay, FITC-geldanamycin probe. The following applies: FP competition with FITC-geldanamycin, 5 nM, 120 min at 25° C. As to the method:
HSP90α-Binding Fluorescent Polarization (FP) Assay
Binding of test compounds to HSP90a protein was measured by fluorescent polarization (FP) using the HSP90a (N-terminal) Assay Kit (BPS Bioscience, #50298), following the manufacturer's instructions, except as noted. Fluorescently labeled HSP90-binding compounds, either the provided FITC-geldanamycin (5 nM final concentration) or RNK04010, a triazolone-based HSP90 binding small molecule labeled with BODIPY through a piperizine-phenyl linker (5 nM final concentration) were employed. A 2.5-fold serial dilution of each test compound ranging from 20 μM to 5.2 nM was assayed for binding to HSP90a. After the final step of adding HSP90a protein to each assay well, plates were mixed by brief shaking, incubated at 25° C. for 120 min for FITC-geldanamycin or 300 min for RNK04010, and fluorescence was measured using a PerkinElmer EnVision Plate Reader.

With `C=CC(=O)N1CCN(c2nc(NCCC(=O)N3CCC(CN4CCN(Cc5ccc(-n6c(O)nnc6-c6cc(C(C)C)c(O)cc6O)cc5)CC4)CC3)nc3c2CCN(c2cc(O)cc4ccccc24)C3)CC1` [Compound 14, 1-(4-(2-((3-(4-((4-(4-(3-(2,4-dihydroxy-5-isopropylphenyl)-5-hydroxy-4H-1,2,4-triazol-4-yl)benzyl)piperazin-1-yl)methyl)piperidin-1-yl)-3-oxopropyl)amino)-7-(3-hydroxynaphthalen-1-yl)-5,6,7,8-tetrahydropyrido[3,4-d]pyrimidin-4-yl)piperazin-1-yl)prop-2-en-1-one, trifluoroacetic acid], the values for the EC50 in assay [1], in assay [3] and in assay [4] were more than 1000 nM, 100 to 1000 nM and more than 1000 nM, respectively. In addition, the IC50 is less than 100 nM at HSP90a protein [2] and more than 1000 nM on KRAS(G12C) [5].

With `C=CC(=O)N1CCN(c2nc(NCCC(=O)N3CCC(Cc4ccc(CN(C)Cc5ccc(-n6c(C(=O)NCC(F)(F)F)nnc6-c6cc(C(C)C)c(O)cc6O)cc5)cc4)CC3)nc3c2CCN(c2cc(O)cc4ccccc24)C3)CC1` [Compound 16, 4-(4-(((4-((1-(3-((4-(4-acryloylpiperazin-1-yl)-7-(3-hydroxynaphthalen-1-yl)-5,6,7,8-tetrahydropyrido[3,4-d]pyrimidin-2-yl)amino)propanoyl)piperidin-4-yl)methyl)benzyl)(methyl)amino)methyl)phenyl)-5-(2,4-dihydroxy-5-isopropylphenyl)-N-(2,2,2-trifluoroethyl)-4H-1,2,4-triazole-3-carboxamide, trifluoroacetic acid], the EC50 in assay [1] was less than 100 nM; in assay [3] it was 100 to 1000 nM; in assay [4], 100 to 1000 nM. The IC50 on HSP90a protein [2] and at KRAS(G12C) [5] was more than 1000 nM each time. For the same compound, on KRAS(G12C) [6] (156.2 nM), the inhibition at 0.1562 µM was less than 33%. For the same compound, the inhibition at 0.3125 µM at KRAS(G12C) [6] (312.5 nM) is less than 33%. At KRAS(G12C) [6] (625 nM), this compound displayed an inhibition at 0.625 µM of less than 33%. Also, at KRAS(G12C) [6] (1250 nM), the inhibition at 1.25 µM was less than 33%. The inhibition at 2.5 µM against KRAS(G12C) [6] (2500 nM) is less than 33%. Also, on KRAS(G12C) [6] (5000 nM), the inhibition at 5 µM is less than 33%. In addition, the inhibition at 10 µM against KRAS(G12C) [6] (10,000 nM) is less than 33%.

For `C=CC(=O)N1CCN(c2nc(NCCC(=O)NCCc3ccc(CN4CCC(Cc5ccc(-n6c(C(=O)NCC(F)(F)F)nnc6-c6cc(C(C)C)c(O)cc6O)cc5)CC4)cc3)nc3c2CCN(c2cc(O)cc4ccccc24)C3)CC1` [Compound 24, 4-(4-((1-(4-(2-(3-((4-(4-acryloylpiperazin-1-yl)-7-(3-hydroxynaphthalen-1-yl)-5,6,7,8-tetrahydropyrido[3,4-d]pyrimidin-2-yl)amino)propanamido)ethyl)benzyl)piperidin-4-yl)methyl)phenyl)-5-(2,4-dihydroxy-5-isopropylphenyl)-N-(2,2,2-trifluoroethyl)-4H-1,2,4-triazole-3-carboxamide, trifluoroacetic acid], the EC50 is 100 to 1000 nM in assay [1], 100 to 1000 nM in assay [3] and more than 1000 nM in assay [4]. The IC50 is 100 to 1000 nM at HSP90a protein [2] and more than 1000 nM on KRAS(G12C) [5].

Take `CC(=O)N1CCN(c2nc(NCCC(=O)NCc3ccc(CN4CCC(Cc5ccc(-n6c(C(=O)NCC(F)(F)F)nnc6-c6cc(C(C)C)c(O)cc6O)cc5)CC4)cc3)nc3c2CCN(c2cc(O)cc4ccccc24)C3)CC1` [Compound 54, 4-(4-((1-(4-((3-((4-(4-acetylpiperazin-1-yl)-7-(3-hydroxynaphthalen-1-yl)-5,6,7,8-tetrahydropyrido[3,4-d]pyrimidin-2-yl)amino)propanamido)methyl)benzyl)piperidin-4-yl)methyl)phenyl)-5-(2,4-dihydroxy-5-isopropylphenyl)-N-(2,2,2-trifluoroethyl)-4H-1,2,4-triazole-3-carboxamide, trifluoroacetic acid]: the figures for the 50% effective concentration (EC50) in assay [1], in assay [3] and in assay [4] were less than 100 nM, 100 to 1000 nM and 100 to 1000 nM, respectively. The figures for the IC50 at HSP90a protein [2] and at KRAS(G12C) [5] were 100 to 1000 nM and more than 1000 nM, respectively.

As for `C=CC(=O)N1CCN(c2nc(NCCC(=O)N3CCC(CN4CCN(Cc5ccc(-n6c(C(=O)NCC(F)(F)F)nnc6-c6cc(C)c(O)cc6O)cc5)CC4)CC3)nc3c2CCN(c2cccc4cccc(Cl)c24)C3)C[C@H]1CC#N` [Compound 79, (R)-4-(4-((4-((1-(3-((4-(4-acryloyl-3-(cyanomethyl)piperazin-1-yl)-7-(8-chloronaphthalen-1-yl)-5,6,7,8-tetrahydropyrido[3,4-d]pyrimidin-2-yl)amino)propanoyl)piperidin-4-yl)methyl)piperazin-1-yl)methyl)phenyl)-5-(2,4-dihydroxy-5-methylphenyl)-N-(2,2,2-trifluoroethyl)-4H-1,2,4-triazole-3-carboxamide, trifluoroacetic acid], the IC50 was 100 to 1000 nM at HSP90a protein [2] and more than 1000 nM on KRAS(G12C) [5]. The EC50 in assay [3] and in assay [4] was 100 to 1000 nM each time.

As to `C=CC(=O)N1CCN(c2nc(NCCC(=O)NCc3ccc(CN4CCC(Cc5ccc(-n6c(C(=O)NCC(F)(F)F)nnc6-c6cc(C(C)C)c(O)cc6O)cc5)CC4)cc3)nc3c2CCN(c2cccc4ccccc24)C3)C[C@H]1CC#N` [Compound 95, (R)-4-(4-((1-(4-((3-((4-(4-acryloyl-3-(cyanomethyl)piperazin-1-yl)-7-(naphthalen-1-yl)-5,6,7,8-tetrahydropyrido[3,4-d]pyrimidin-2-yl)amino)propanamido)methyl)benzyl)piperidin-4-yl)methyl)phenyl)-5-(2,4-dihydroxy-5-isopropylphenyl)-N-(2,2,2-trifluoroethyl)-4H-1,2,4-triazole-3-carboxamide, trifluoroacetic acid], the IC50 was 100 to 1000 nM at HSP90a protein [2] and more than 1000 nM on KRAS(G12C) [5]. Besides, the concentration for a half-maximal effect (EC50) in assay [3] and in assay [4] was 100 to 1000 nM throughout.

Consider `C=C(F)C(=O)N1CCN(c2nc(OC[C@@H]3CCN(C(=O)c4ccc5c(c4)CN(C(=O)c4cc(C(C)C)c(O)cc4O)C5)C3)nc3c2CCN(c2cccc4cccc(Cl)c24)C3)C[C@@H]1CC#N` [Compound 165, 2-((S)-4-(7-(8-chloronaphthalen-1-yl)-2-(((R)-1-(2-(2,4-dihydroxy-5-isopropylbenzoyl)isoindoline-5-carbonyl)pyrrolidin-3-yl)methoxy)-5,6,7,8-tetrahydropyrido[3,4-d]pyrimidin-4-yl)-1-(2-fluoroacryloyl)piperazin-2-yl)acetonitrile], for which the half-maximal effective concentration (EC50) in assay [1] is more than 1000 nM. The compound also returned an IC50 on HSP90a protein [7] of 100 to 1000 nM.

Usually EC50 stands for the concentration that produces a half-maximal response. Higher therefore signals a need for much substance. For orientation: inhibition means the change of the read-out against control, counted positive when it falls.

The record behind these values is US20230391772A1, “METHODS AND COMPOSITIONS FOR TARGETED PROTEIN DEGRADATION” (Ranok Therapeutics (Hangzhou) Co. Ltd., priority 2020, published 2023).
